{
  "source": "paper PMC9589981",
  "about": "“High-Resolution Epitope Mapping and Affinity Binding Analysis Comparing a New Anti-Human LAG3 Rabbit Antibody Clone to the Commonly Used Mouse 17B4 Clone” (Antibodies, 2022)",
  "test_system": "mouse 17B4 antibody (binding to LAG3 from HH cell lysate)",
  "assay": "ACE (automated capillary electrophoresis) peptide inhibition assay, 17B4",
  "conditions": "result in words, peptide at 5000 nM and 500 nM",
  "protocol": "For each assay run, HH cell lysate was mixed with 0.1× WES sample buffer reagent, and reconstituted WES 5× Fluorescent Mix reagent followed by denaturation at 95 °C for 3 min and then held on ice followed until use. Denatured sample was added to each of the designated wells of the separation module sampling plate. Dilutions of the stock rabbit SP464 and mouse 17B4 monoclonal antibodies were made to the desired concentrations using the WES detection module Antibody Dilution Buffer 2 reagent. Diluted antibody solutions were added to the designated wells of the separation module sampling plate. The remaining WES assay reagents were finally added to the plate and then processed in the WES instrument using the default running and detection parameters.\nHH cell lysate samples were prepared and used as above for antibody titration assays. Rabbit SP464 and mouse 17B4 antibodies were diluted to 4 µg/mL in the WES detection module Antibody Dilution Buffer 2 reagent. The antibody solutions were then diluted 1:1 (vol/vol) with varying concentrations of peptide, or diluent as a no peptide control, for 1 h at RT, and 10 µL of each antibody/peptide solution was added to the designated wells of the separation module sampling plate. Samples were run in duplicates or triplicates. Plates were then processed in the WES instrument using default running and detection parameters.",
  "data": [
    {"sequence": "PAAAPGHPLA [central ten amino acid fragment within the N-terminal 15 amino acids]", "values": [
      {"measurement": "inhibition of 17B4 binding by immunogen fragment (ACE)", "result": "inhibited binding"},
      {"measurement": "inhibition of 17B4 binding by immunogen fragment (ACE)", "setting": "listed as center sub-domain fragment", "result": "complete inhibition"}
    ]}
  ]
}
